12 compounds from EP3722296B1, “DIHYDRONAPHTHYRIDINES AND RELATED COMPOUNDS USEFUL AS KINASE INHIBITORS FOR THE TREATMENT OF PROLIFERATIVE DISEASES” (Deciphera Pharmaceuticals, LLC, priority 2012, dated 2013) can be followed below.

One assay deals with T1, c-KIT D816V kinase (Homo sapiens, UniProt P10721, D816V).
T1 construct: residues T544-V976 with N-terminal GST fusion; purchased deCODE Biostructures
The experiment in a line: c-KIT D816V kinase Assay. Format: biochemical. The conditions noted are these: enzymatic assay, ATP 200 uM. In outline:
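Coupled assay in which NADH oxidation was tracked as decreasing absorbance at 340 nm, continuously for 5 hours at 30 °C after adding serially diluted compound. Enzyme: cKit residues T544-V976 with N-terminal tag, GST fusion and TEV cleavage site.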

Assay [1] deals with Phospho-KIT (Tyr719). The experiment in a line: GIST430 KIT Western Blot. In kind it is cell-based. The following applies: GIST430 cells, 4 hours, serum-free medium; read-out: pKIT suppression by western blot analysi GIST430. In outline: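 GIST430 cells were compound-treated in serum-free Ham's F10, then lysed. Phospho-KIT (Tyr719) was measured by western blot with fluorescence-mode ECL, and blots were reprobed for total KIT; IC50 derived from concentration response.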
(In western blotting, separated proteins are transferred to a membrane and probed.)

The next assay addresses T2, c-KIT VVDV kinase (Homo sapiens, UniProt P10721, D816V/DEL559-560).
T2 construct: This construct contains residues T544-V976 of cKit; GST (N); TEV cleavage site (internal); purchased deCODE Biostructures
The experiment in a line: cKIT-VVDV kinase Assay. The conditions noted are these: enzymatic assay; V559+V560 deletions and D816V mutation. Format: biochemical. In outline: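 Coupled spectrophotometric format: kinase activity followed as NADH oxidation, loss of absorbance at 340 nm. Serially diluted compound mixed with the reaction mixture to start; read continuously for 5 h at 30 °C.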

A further assay relates to GIST T1 cells. The experiment in a line: GIST T1 Cell Proliferation Assay. In kind it is cell-based. The following applies: Homo sapiens, GISTT1, 72 h, 68 hours + 4 hours resazurin. For orientation: Resazurin is reduced to fluorescent resorufin, in cell work by metabolically active cells.
Assay [2] addresses T3, Phospho-KIT (Tyr719) (Homo sapiens, UniProt P10721, K642E).
T3 construct: endogenous in cells; host or cells: GIST882
The experiment in a line: GIST882 KIT Western Blot. The conditions noted are these: GIST882 cells, 4 hours, serum-free medium; read-out: pKIT suppression by western blot analysi GIST 882. In kind it is cell-based. As for the experimental part:
GIST48, GIST430, and GIST882 cells were obtained from J. Fletcher (Brigham and Women's Hospital, Boston, MA). GIST T1 cells were obtained from B. Rubin (Cleveland Clinic, Cleveland, OH) and Professor Takahiro Taguchi (Kochi Medical School, Nankoku, Kochi, Japan). […] GIST430 cells were grown in Ham's F10 medium supplemented with 15% characterized fetal bovine serum (Invitrogen, Carlsbad, CA), 30 mg/L bovine pituitary extract (BD Biosciences, San Jose, CA), 0.5% Mito+ serum extender (BD Biosciences, San Jose, CA), 1 unit/mL penicillin G, 1 µg/ml streptomycin, and 0.29 mg/mL L-glutamine at 37 °C, 5%CO2, 95% humidity. GIST T1 cells were grown in DMEM medium supplemented with 10% characterized fetal bovine serum (Invitrogen, Carlsbad, CA), 1 unit/mL penicillin G, 1 µg/ml streptomycin, and 0.29 mg/mL L-glutamine at 37 °C, 5% CO2, and 95% humidity.
Two hundred fifty thousand cells were added per well in a 24-well tissue-culture treated plate. […] Medium was aspirated, cells were washed with PBS, and serum-free RPMI1640 medium was added. […] Cells were washed with PBS, then lysed. Cell lysates were separated by SDS-PAGE and transferred to PVDF. Phospho-KIT (Tyr719) was detected using an antibody from Cell Signaling Technology (Beverly, MA), ECL Plus detection reagent (GE Healthcare, Piscataway, NJ) and a Molecular Devices Storm 840 phosphorimager in fluorescence mode. Blots were stripped and probed for total KIT using an antibody from Santa Cruz Biotech (Santa Cruz, CA). IC50 values were calculated using Prism software (Graphpad, San Diego, CA).

A value given as a limit tells only on which side of the number the result lay.

T1 sequence (P10721 544-976 D816V): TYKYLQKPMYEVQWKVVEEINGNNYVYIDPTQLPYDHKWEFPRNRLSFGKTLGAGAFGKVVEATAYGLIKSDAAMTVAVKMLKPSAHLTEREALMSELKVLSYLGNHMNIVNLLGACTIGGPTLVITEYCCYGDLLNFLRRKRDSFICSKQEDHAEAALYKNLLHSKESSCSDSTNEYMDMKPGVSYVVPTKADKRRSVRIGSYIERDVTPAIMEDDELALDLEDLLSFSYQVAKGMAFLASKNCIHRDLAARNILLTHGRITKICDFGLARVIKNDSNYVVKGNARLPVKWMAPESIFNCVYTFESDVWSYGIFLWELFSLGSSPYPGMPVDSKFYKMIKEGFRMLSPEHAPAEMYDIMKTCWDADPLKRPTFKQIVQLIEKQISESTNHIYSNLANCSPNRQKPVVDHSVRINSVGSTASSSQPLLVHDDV
T3 sequence (P10721 26-976 K642E): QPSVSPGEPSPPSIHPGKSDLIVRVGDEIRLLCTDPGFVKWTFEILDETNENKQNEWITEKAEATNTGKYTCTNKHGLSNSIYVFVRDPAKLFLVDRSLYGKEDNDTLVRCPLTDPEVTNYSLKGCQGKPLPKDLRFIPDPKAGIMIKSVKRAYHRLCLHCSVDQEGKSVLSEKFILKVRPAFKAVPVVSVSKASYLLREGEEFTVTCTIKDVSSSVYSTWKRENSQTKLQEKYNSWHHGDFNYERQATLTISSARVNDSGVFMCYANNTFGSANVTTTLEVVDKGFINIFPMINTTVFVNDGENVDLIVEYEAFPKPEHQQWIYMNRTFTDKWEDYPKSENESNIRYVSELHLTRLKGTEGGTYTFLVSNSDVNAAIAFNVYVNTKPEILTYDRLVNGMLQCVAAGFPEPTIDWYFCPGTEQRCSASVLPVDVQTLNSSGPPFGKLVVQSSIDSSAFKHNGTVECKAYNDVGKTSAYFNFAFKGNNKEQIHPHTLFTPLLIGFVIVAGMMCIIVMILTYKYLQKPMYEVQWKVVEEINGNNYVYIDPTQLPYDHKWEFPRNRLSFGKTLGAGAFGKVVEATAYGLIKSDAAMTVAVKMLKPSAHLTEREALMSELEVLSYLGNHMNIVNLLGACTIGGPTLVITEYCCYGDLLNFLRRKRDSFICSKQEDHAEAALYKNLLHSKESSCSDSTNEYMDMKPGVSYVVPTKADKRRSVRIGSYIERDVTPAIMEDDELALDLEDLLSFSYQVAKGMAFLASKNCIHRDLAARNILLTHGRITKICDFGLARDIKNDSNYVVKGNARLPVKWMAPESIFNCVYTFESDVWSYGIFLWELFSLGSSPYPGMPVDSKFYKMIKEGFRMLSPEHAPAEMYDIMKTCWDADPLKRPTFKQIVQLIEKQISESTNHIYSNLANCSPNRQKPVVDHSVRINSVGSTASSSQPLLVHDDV
T2 sequence (P10721 with tags, fused parts or gaps DEL559-560/D816V): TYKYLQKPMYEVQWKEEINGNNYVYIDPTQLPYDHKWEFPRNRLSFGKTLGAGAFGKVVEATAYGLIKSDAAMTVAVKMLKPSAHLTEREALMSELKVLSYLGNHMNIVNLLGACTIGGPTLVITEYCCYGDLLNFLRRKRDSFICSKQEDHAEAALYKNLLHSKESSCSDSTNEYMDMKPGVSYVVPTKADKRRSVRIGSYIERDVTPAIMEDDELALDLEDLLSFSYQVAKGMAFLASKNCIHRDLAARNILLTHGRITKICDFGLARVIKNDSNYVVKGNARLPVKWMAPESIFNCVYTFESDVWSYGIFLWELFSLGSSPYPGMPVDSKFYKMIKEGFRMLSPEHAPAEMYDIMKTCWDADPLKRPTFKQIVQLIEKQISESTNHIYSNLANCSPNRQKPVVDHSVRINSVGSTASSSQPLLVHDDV

Take `CCn1c(=O)c(-c2cc(NC(=O)Nc3cccc(F)c3)c(F)cc2Cl)cc2cnc(NC)cc21` [Example 24, 1-[4-chloro-5-(1-ethyl-7-methylamino-2-oxo-1,2-dihydro-[1,6]naphthyridin-3-yl)-2-fluoro-phenyl]-3-(3-fluoro-phenyl)-urea]: the IC50 at c-KIT D816V kinase was less than 0.01 µM; in the assay with Phospho-KIT (Tyr719) [1] it was less than 0.01 µM; at c-KIT VVDV kinase, less than 0.01 µM; with GIST T1 cells, less than 0.01 µM; at Phospho-KIT (Tyr719) [2], 0.01 to 0.1 µM.

In the case of `CCn1c(=O)c(-c2cc(NC(=O)Nc3ccccc3F)c(F)cc2Cl)cc2cnc(NC)cc21` [Example 25, 1-[4-chloro-5-(1-ethyl-7-methylamino-2-oxo-1,2-dihydro-[1,6]naphthyridin-3-yl)-2-fluoro-phenyl]-3-(2-fluoro-phenyl)-urea], the IC50 at c-KIT D816V kinase was 0.01 to 0.1 µM; in the assay on Phospho-KIT (Tyr719) [1], 0.01 to 0.1 µM; at c-KIT VVDV kinase it was less than 0.01 µM; in the assay with GIST T1 cells it was less than 0.01 µM; on Phospho-KIT (Tyr719) [2], 0.01 to 0.1 µM.

`CCn1c(=O)c(-c2cc(NC(=O)Nc3cccc(F)c3)c(F)cc2Cl)cc2cnc(NCCOC)cc21` [Example 28, 1-(4-chloro-5-(1-ethyl-7-(2-methoxyethylamino)-2-oxo-1,2-dihydro-1,6-naphthyridin-3-yl)-2-fluorophenyl)-3-(3-fluorophenyl)urea]: the IC50 on c-KIT D816V kinase, in the assay on Phospho-KIT (Tyr719) [1], at c-KIT VVDV kinase, with GIST T1 cells and at Phospho-KIT (Tyr719) [2] was 0.01 to 0.1 µM in each case.

Regarding `CCn1c(=O)c(-c2cc(NC(=O)Nc3csc4ccccc34)c(F)cc2Cl)cc2cnc(NC)cc21` [Example 32, 1-(benzo[b]thiophen-3-yl)-3-(4-chloro-5-(1-ethyl-7-(methylamino)-2-oxo-1,2-dihydro-1,6-naphthyridin-3-yl)-2-fluorophenyl)urea], the IC50 at c-KIT D816V kinase is less than 0.01 µM; in the assay on Phospho-KIT (Tyr719) [1] it was less than 0.01 µM; at c-KIT VVDV kinase, less than 0.01 µM; in the assay on GIST T1 cells it was less than 0.01 µM; at Phospho-KIT (Tyr719) [2], 0.01 to 0.1 µM.

On to `CCn1c(=O)c(-c2cc(NC(=O)Nc3cccc(F)c3)c(F)cc2C)cc2cnc(NC)cc21` [Example 44, 1-(5-(1-ethyl-7-(methylamino)-2-oxo-1,2-dihydro-1,6-naphthyridin-3-yl)-2-fluoro-4-methylphenyl)-3-(3-fluorophenyl)urea], for which the IC50 is 0.01 to 0.1 µM on c-KIT D816V kinase; less than 0.01 µM in the assay with Phospho-KIT (Tyr719) [1]; 0.01 to 0.1 µM at c-KIT VVDV kinase; less than 0.01 µM in the assay on GIST T1 cells; 0.01 to 0.1 µM at Phospho-KIT (Tyr719) [2].

Turning to `CCn1c(=O)c(-c2cc(NC(=O)Nc3cccc(F)c3)c(F)cc2Br)cc2cnc(NC)cc21` [Example 50, 1-(4-bromo-5-(1-ethyl-7-(methylamino)-2-oxo-1,2-dihydro-1,6-naphthyridin-3-yl)-2-fluorophenyl)-3-(3-fluorophenyl)urea], the IC50 is 0.01 to 0.1 µM on c-KIT D816V kinase; less than 0.01 µM in the assay with Phospho-KIT (Tyr719) [1]; 0.1 to 1 µM at c-KIT VVDV kinase; 0.01 to 0.1 µM in the assay with GIST T1 cells; 0.01 to 0.1 µM on Phospho-KIT (Tyr719) [2].

In the case of `CCn1c(=O)c(-c2cc(NC(=O)Nc3ccccc3)c(F)cc2Br)cc2cnc(NCCOC)cc21` [Example 51, 1-(4-bromo-5-(1-ethyl-7-(2-methoxyethylamino)-2-oxo-1,2-dihydro-1,6-naphthyridin-3-yl)-2-fluorophenyl)-3-phenylurea], the IC50 on c-KIT D816V kinase was 0.1 to 1 µM; in the assay on Phospho-KIT (Tyr719) [1], 0.01 to 0.1 µM; at c-KIT VVDV kinase, 0.1 to 1 µM; in the assay with GIST T1 cells, less than 0.01 µM; on Phospho-KIT (Tyr719) [2], 0.01 to 0.1 µM.

In the case of `CCn1c(=O)c(-c2cc(NC(=O)Nc3ccccc3)c(F)cc2Cl)cc2cnc(NC(C)=O)cc21` [Example 54, 1-(5-(7-acetamido-1-ethyl-2-oxo-1,2-dihydro-1,6-naphthyridin-3-yl)-4-chloro-2-fluorophenyl)-3-phenylurea], the IC50 at c-KIT D816V kinase was less than 0.01 µM; with Phospho-KIT (Tyr719) [1], 0.01 to 0.1 µM; at c-KIT VVDV kinase, less than 0.01 µM; in the assay on GIST T1 cells, less than 0.01 µM; at Phospho-KIT (Tyr719) [2] it was 0.01 to 0.1 µM.

Take `CCn1c(=O)c(-c2cc(NC(=O)Nc3cc(F)cc(F)c3)c(F)cc2Cl)cc2cnc(NC)cc21` [Example 55, 1-(4-chloro-5-(1-ethyl-7-(methylamino)-2-oxo-1,2-dihydro-1,6-naphthyridin-3-yl)-2-fluorophenyl)-3-(3,5-difluorophenyl)urea]: the IC50 at c-KIT D816V kinase is 0.01 to 0.1 µM; in the assay on Phospho-KIT (Tyr719) [1], 0.01 to 0.1 µM; on c-KIT VVDV kinase, 0.01 to 0.1 µM; in the assay on GIST T1 cells, less than 0.01 µM; on Phospho-KIT (Tyr719) [2], 0.01 to 0.1 µM.

Take `CCn1c(=O)c(-c2cc(NC(=O)Nc3csc4ccccc34)c(F)cc2C)cc2cnc(NC)cc21` [Example 59, 1-(benzo[b]thiophen-3-yl)-3-(5-(1-ethyl-7-(methylamino)-2-oxo-1,2-dihydro-1,6-naphthyridin-3-yl)-2-fluoro-4-methylphenyl)urea]: the IC50 at c-KIT D816V kinase, with Phospho-KIT (Tyr719) [1], at c-KIT VVDV kinase, in the assay on GIST T1 cells and on Phospho-KIT (Tyr719) [2] was 0.01 to 0.1 µM throughout.

On to `CCn1c(=O)c(-c2cc(NC(=O)Nc3ccccc3)c(F)cc2Cl)cc2cnc(NC(=O)N(C)C)cc21` [Example 70, 3-(3-(2-chloro-4-fluoro-5-(3-phenylureido)phenyl)-1-ethyl-2-oxo-1,2-dihydro-1,6-naphthyridin-7-yl)-1,1-dimethylurea], for which the IC50 on c-KIT D816V kinase is less than 0.01 µM; in the assay on Phospho-KIT (Tyr719) [1] it was less than 0.01 µM; on c-KIT VVDV kinase, less than 0.01 µM; in the assay on GIST T1 cells, less than 0.01 µM; at Phospho-KIT (Tyr719) [2], 0.01 to 0.1 µM.

As to `CCn1c(=O)c(-c2cc(NC(=O)Nc3ccccc3)c(F)cc2Cl)cc2cnc(NC(=O)OC)cc21` [Example 73, methyl (3-(2-chloro-4-fluoro-5-(3-phenylureido)phenyl)-1-ethyl-2-oxo-1,2-dihydro-1,6-naphthyridin-7-yl)carbamate], the IC50 on c-KIT D816V kinase was less than 0.01 µM; in the assay on Phospho-KIT (Tyr719) [1] it was 0.01 to 0.1 µM; at c-KIT VVDV kinase, less than 0.01 µM; in the assay with GIST T1 cells, 0.01 to 0.1 µM; at Phospho-KIT (Tyr719) [2], 0.01 to 0.1 µM.
